The values that follow come from PMC8448343, “Characterisation of novel functionality within the Blastocystis tryptophanase gene” (PLoS Neglected Tropical Diseases, 2021).

For this assay, the target named is T1, BhTnaA (Blastocystis ST7-B tryptophanase) (Blastocystis hominis, UniProt D8M5A5).
T1 construct: gene GSBLH_T00003147001; pGEX-6P-1, N-terminal GST tag cut with PreScission protease; E. coli BL21
T1 sequence (D8M5A5 1-544): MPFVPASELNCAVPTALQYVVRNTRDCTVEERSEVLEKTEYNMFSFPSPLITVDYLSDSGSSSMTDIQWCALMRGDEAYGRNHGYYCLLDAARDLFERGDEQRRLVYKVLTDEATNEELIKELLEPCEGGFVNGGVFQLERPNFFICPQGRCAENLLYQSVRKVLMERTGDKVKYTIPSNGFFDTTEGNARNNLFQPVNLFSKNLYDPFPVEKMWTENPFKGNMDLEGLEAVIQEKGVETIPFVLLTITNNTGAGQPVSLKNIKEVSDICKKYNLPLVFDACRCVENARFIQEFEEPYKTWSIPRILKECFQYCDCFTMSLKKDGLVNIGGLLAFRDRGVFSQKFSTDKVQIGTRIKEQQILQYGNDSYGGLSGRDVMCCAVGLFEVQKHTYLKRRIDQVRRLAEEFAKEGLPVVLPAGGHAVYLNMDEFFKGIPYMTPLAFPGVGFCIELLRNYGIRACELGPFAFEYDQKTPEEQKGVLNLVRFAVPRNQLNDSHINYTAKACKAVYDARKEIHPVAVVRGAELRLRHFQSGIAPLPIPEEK
Briefly: indole formation, Ehrlich's reagent, […] nm, Hanes-Woolf plot. In kind it is biochemical. The settings on record: forward reaction (tryptophan to indole); PLP 0.165 mM; pH 7.5; 37 °C; toluene-layered; exact value only in Fig 4D.

One may read the Km as the substrate concentration at which the rate is half of its maximum.

In the case of `N[C@@H](Cc1c[nH]c2ccccc12)C(=O)O` [L-tryptophan], the Michaelis-Menten constant (Km) is greater than 3 mM.
